Results on five molecules are retold here after ChEMBL document CHEMBL1127403, “L-N6-(1-iminoethyl)lysine: a selective inhibitor of inducible nitric oxide synthase” (J Med Chem, 1994).

One experiment concerns the target Nitric oxide synthase 1 (Rattus norvegicus, UniProt P29476). The experiment in a line: Tested for inhibition of rat brain […] nitric oxide synthase.
In experiment [1] the target is T1, Nitric oxide synthase, inducible (Mus musculus, UniProt P29477).
T1 sequence (P29477 whole entry): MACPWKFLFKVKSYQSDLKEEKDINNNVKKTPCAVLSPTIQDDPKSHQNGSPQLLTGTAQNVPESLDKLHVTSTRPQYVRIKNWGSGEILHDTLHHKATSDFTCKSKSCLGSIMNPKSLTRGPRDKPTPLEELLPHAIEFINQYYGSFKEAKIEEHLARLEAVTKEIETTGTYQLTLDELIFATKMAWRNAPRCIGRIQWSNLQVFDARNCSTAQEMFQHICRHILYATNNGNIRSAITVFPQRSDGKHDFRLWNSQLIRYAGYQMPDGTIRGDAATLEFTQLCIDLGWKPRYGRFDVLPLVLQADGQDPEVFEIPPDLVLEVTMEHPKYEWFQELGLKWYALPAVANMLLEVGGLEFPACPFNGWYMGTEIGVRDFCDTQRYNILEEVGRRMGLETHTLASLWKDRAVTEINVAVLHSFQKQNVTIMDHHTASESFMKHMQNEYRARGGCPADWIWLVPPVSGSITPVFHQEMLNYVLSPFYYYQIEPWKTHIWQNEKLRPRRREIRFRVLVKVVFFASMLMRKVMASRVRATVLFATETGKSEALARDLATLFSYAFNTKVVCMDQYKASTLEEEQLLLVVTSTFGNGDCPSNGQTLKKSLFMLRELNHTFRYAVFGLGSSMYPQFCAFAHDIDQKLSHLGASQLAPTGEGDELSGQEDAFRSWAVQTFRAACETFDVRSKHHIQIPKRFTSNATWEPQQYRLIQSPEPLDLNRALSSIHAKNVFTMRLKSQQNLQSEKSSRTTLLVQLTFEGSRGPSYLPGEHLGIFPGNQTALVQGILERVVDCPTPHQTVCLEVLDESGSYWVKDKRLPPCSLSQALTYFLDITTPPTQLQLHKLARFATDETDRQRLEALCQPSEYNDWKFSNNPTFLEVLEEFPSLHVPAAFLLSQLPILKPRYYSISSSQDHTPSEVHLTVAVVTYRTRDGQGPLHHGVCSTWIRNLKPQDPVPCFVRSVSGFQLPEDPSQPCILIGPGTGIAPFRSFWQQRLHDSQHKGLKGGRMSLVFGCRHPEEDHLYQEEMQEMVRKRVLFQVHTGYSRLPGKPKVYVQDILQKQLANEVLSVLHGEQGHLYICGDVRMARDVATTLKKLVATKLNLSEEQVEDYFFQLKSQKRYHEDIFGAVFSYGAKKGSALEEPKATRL
The experiment in a line: Tested for inhibition of mouse inducible nitric oxide synthase.

Experiment [2] is described as follows: Selectivity is the ratio of IC50 of mouse inducible NOS and Rat brain constitutive NOS.

Chain of Nitric oxide synthase 1 (P29476 whole entry): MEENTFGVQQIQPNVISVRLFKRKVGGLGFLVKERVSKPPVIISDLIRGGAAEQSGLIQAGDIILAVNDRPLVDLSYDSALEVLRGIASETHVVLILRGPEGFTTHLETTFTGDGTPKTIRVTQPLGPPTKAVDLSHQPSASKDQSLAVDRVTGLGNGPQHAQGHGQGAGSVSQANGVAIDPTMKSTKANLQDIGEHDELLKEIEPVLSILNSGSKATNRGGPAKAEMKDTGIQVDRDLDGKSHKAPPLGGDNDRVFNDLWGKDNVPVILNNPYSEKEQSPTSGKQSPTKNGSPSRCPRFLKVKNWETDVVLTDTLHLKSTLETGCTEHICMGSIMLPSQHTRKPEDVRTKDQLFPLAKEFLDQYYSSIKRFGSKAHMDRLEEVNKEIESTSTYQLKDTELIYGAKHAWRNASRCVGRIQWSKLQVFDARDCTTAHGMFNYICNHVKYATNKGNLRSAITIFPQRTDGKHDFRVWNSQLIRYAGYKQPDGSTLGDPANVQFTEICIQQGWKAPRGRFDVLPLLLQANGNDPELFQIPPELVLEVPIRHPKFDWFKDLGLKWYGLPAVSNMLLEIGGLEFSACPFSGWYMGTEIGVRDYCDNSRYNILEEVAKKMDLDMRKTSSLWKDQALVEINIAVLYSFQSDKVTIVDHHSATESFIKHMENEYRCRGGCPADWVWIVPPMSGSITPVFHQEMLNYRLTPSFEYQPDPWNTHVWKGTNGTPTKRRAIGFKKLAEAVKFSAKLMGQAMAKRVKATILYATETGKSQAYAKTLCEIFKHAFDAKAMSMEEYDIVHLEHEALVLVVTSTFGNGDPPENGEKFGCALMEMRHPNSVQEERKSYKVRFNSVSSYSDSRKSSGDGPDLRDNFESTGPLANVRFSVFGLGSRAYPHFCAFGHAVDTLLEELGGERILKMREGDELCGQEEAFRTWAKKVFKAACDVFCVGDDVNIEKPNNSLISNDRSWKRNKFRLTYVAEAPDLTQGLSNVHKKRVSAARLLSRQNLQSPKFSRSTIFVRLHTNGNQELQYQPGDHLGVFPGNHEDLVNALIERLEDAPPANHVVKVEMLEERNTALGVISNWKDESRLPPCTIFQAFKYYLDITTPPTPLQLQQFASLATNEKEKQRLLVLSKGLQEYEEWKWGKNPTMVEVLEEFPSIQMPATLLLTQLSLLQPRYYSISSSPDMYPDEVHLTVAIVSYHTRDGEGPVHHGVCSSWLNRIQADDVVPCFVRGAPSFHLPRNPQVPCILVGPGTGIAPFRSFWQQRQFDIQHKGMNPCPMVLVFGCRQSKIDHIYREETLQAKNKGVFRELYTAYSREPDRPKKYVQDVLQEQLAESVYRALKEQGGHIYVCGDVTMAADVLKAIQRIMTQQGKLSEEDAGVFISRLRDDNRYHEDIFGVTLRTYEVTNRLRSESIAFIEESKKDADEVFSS

Broadly, the IC50 is the concentration at which inhibition is half-maximal. Low values mean greater potency in that assay, high ones weaker potency in that assay. As for `CC(=N)NCCCC[C@@H](N)C(=O)O`, the IC50 came to 2800 µM against Nitric oxide synthase 1 and 336 µM in experiment [1]. Moreover, the Selectivity in experiment [2] was determined as 8.
In the same order, the values of `CC(=N)NCCCCCC(N)C(=O)O` (racemic) are 808 µM, 73 µM and 11.
On to `CC(=N)NCCCC[C@H](N)C(=O)O` [L-NIL], for which the IC50 against Nitric oxide synthase 1 was 92 µM; in experiment [1], 3.3 µM. For the same molecule, in experiment [2], the Selectivity was 28.
Molecule `CC(=N)NCCC[C@H](N)C(=O)O` [L-NIO] registered a concentration for half-maximal inhibition (IC50) in experiment [1] of 3.9 µM.
On the same count and under the same terms, the same measure for `N=C(NCCC[C@H](N)C(=O)O)N[N+](=O)[O-]` [NITROARGININE]: 0.5 µM.
